Laboratory results reported in ChEMBL document CHEMBL1201862, “PubChem BioAssay data set” (2004).
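Compound exposure: 48 hours, 5 concentrations, 96-well plates. Here, GI50 denotes the concentration required for 50% inhibition of growth.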 Active and inactive are the calls of the source. Rule as the data show it: active = GI50 up to about 1.1 µM and inactive = higher.

Experiments:
Test in all cases: growth of human tumour cells (NCI), 48 h
[1] = tested on: A549
[2] = tested on: COLO 205
[3] = tested on: EKVX
[4] = tested on: HCC 2998
[5] = tested on: HOP-62
[6] = tested on: NCI-H226
[7] = tested on: OVCAR-3
[8] = tested on: OVCAR-4
[9] = tested on: OVCAR-5
[10] = tested on: OVCAR-8
[11] = tested on: SF-268
[12] = tested on: SK-MEL-2
[13] = tested on: SK-MEL-5
[14] = tested on: SN12C
[15] = tested on: TK-10
[16] = tested on: U-251
[17] = tested on: A498
[18] = tested on: K562
[19] = tested on: SK-OV-3

Measured: GI50

CCCCCCC(=O)C/C(=N/NC(N)=S)C(=O)NC1C2CC3CC(C2)CC1C3 (stereo unspecified)
inactive: [1] > 100 µM | [2] > 100 µM | [3] > 100 µM | [4] > 100 µM | [5] > 100 µM | [6] > 100 µM | [7] > 100 µM | [8] > 100 µM | [9] > 100 µM | [10] > 100 µM | [11] > 100 µM | [12] > 100 µM | [13] > 100 µM | [14] > 100 µM | [15] > 100 µM | [16] > 100 µM

COc1ccc2c(c1)c(Cc1c(C)n(C)c3ccc(OC)cc13)c(C)n2C
inactive: [17] > 100 µM | [1] > 100 µM | [2] > 100 µM | [3] > 100 µM | [5] > 100 µM | [18] > 100 µM | [6] > 100 µM | [7] > 100 µM | [8] > 100 µM | [9] > 100 µM | [10] > 100 µM | [11] > 100 µM | [12] > 100 µM | [13] > 100 µM | [19] > 100 µM | [14] > 100 µM | [15] > 100 µM | [16] > 100 µM

O=C(NN1C(=O)C(Cl)C1c1c(O)ccc2ccccc12)c1ccccc1O (stereo unspecified)
inactive: [17] 8.45 µM | [1] > 100 µM | [18] > 100 µM | [6] > 100 µM | [7] > 100 µM | [8] > 100 µM | [10] > 100 µM | [11] > 100 µM | [12] > 100 µM | [13] > 100 µM | [19] > 100 µM | [14] > 100 µM | [15] > 100 µM | [16] > 100 µM

Nc1nc2[nH]cnc2c(=O)[nH]1
inactive: [17] > 100 µM | [1] > 100 µM | [2] > 100 µM | [3] > 100 µM | [5] > 100 µM | [18] > 100 µM | [6] > 100 µM | [7] > 100 µM | [8] > 100 µM | [9] > 100 µM | [10] > 100 µM | [11] > 100 µM | [12] > 100 µM | [13] > 100 µM | [19] > 100 µM | [14] > 100 µM | [15] > 100 µM | [16] > 100 µM

COc1ccc(CN(CCN(C)C)c2ccccn2)cc1.Cn1c(=O)c2[nH]c(Br)nc2n(C)c1=O
inactive: [17] > 100 µM | [5] > 100 µM | [18] 94 µM | [7] > 100 µM | [9] > 100 µM | [10] > 100 µM | [11] > 100 µM | [12] > 100 µM | [13] > 100 µM | [19] > 100 µM | [14] > 100 µM | [15] > 100 µM | [16] > 100 µM

Cc1cc2c(C)nn(Cc3ccc(Cl)cc3Cl)c2c(C#N)c1C
inactive: [1] 86.3 µM | [3] > 100 µM | [4] > 100 µM | [5] > 100 µM | [6] > 100 µM | [7] > 100 µM | [9] > 100 µM | [10] > 100 µM | [11] > 100 µM | [12] > 100 µM | [19] > 100 µM | [14] > 100 µM | [15] > 100 µM | [16] > 100 µM

COc1cc(OC)nc(NC(=O)NS(=O)(=O)c2cccc3ncn(C)c(=O)c23)n1
inactive: [17] > 100 µM | [1] > 100 µM | [2] > 100 µM | [3] > 100 µM | [5] > 100 µM | [18] > 100 µM | [6] > 100 µM | [7] > 100 µM | [8] > 100 µM | [9] > 100 µM | [10] > 100 µM | [11] > 100 µM | [12] > 100 µM | [13] > 100 µM | [19] > 100 µM | [14] > 100 µM | [15] > 100 µM | [16] > 100 µM
